According to patent publication US9440989B2, “Antifibrinolytic compounds” (PROYECTO DE BIOMEDICINA CIMA, S.L., priority 2012, dated 2016):

Test system: human blood (whole blood clot lysis, tPA)
Assay: Thromboelastometry (ROTEM, modified in-tem with tPA): whole blood clot formation and lysis, human blood
Settings: Homo sapiens, read-out: EC50LT (effective concentration to delay lysis time by 50%)
Protocol: A modification of in-tem test as described below was used for the examination of antifibrinolytic effects of tested compounds and its interaction with platelets in citrated blood.
In a pre-warmed cuvette and holder 1 μL of Tissue plasminogen activator (tPA) (150,000 U/mL, Actylise), 20 μL of start-tem reagent (CaCl2), 20 μL of in-tem reagent (activators of coagulation system), 3 μL of DMSO (control) or tested compounds (CMs) in DMSO and 300 μL of citrated blood pre-warmed were pipetted. The cup holder containing the sample mixture was placed immediately on the appropriate channel. The measurement was recorded for 60 min to allow clot formation and lysis.

| Structure (SMILES) | EC50 |
| --- | --- |
| COC(=O)c1ccc(Oc2ccc(S(=O)(=O)C3(C(=O)NO)CCC4(CCNCC4)C3)cc2)cc1 (centres unmarked) [Example 1-06] | > 25 µM |
| CC(=O)Nc1ccc(Oc2ccc(S(=O)(=O)C3(C(=O)NO)CCC4(CCNCC4)C3)cc2)cc1 (centres unmarked) [Example 1-13] | < 1 µM |
| COc1ccc(Sc2ccc(S(=O)(=O)C3(C(=O)NO)CCC4(CCNCC4)C3)cc2)cc1 (centres unmarked) [Example 1-15] | > 25 µM |
| O=C(NO)C1(S(=O)(=O)c2ccc(Oc3ccc(C(F)(F)F)cc3)cc2)CCC2(CCNCC2)C1 (centres unmarked) [Example 1-21] | < 1 µM |
| COc1ccc(Oc2ccc(S(=O)(=O)C3(C(=O)NO)CCC4(CCN(CC(C)=O)CC4)C3)cc2)cc1 (centres unmarked) [Example 1-28] | 1 to 10 µM |
| COc1ccc(Oc2ccc(S(=O)(=O)C3(C(=O)NO)CCC4(CCN(CC(=O)O)CC4)C3)cc2)cc1 (centres unmarked) [Example 1-29] | 1 to 10 µM |
| CCCN1CCC2(CC1)CCC(C(=O)NO)(S(=O)(=O)c1ccc(Oc3ccc(OC)cc3)cc1)C2 (centres unmarked) [Example 1-31] | < 1 µM |
| COc1ccc(Oc2ccc(S(=O)(=O)C3(C(=O)NO)CCC4(CCN(C5CC5)CC4)C3)cc2)cc1 (centres unmarked) [Example 1-32] | 1 to 10 µM |
| CNC(=O)N1CCC2(CC1)CCC(C(=O)NO)(S(=O)(=O)c1ccc(Oc3ccc(OC)cc3)cc1)C2 (centres unmarked) [Example 1-33] | > 25 µM |
| COc1ccc(Oc2ccc(S(=O)(=O)C3(C(=O)NO)CCC4(CCN(c5ccccc5)CC4)C3)cc2)cc1 (centres unmarked) [Example 1-34] | > 25 µM |
| COc1ccc(Oc2ccc(S(=O)(=O)C3(C(=O)NO)CCC4(CCN(c5ccccn5)CC4)C3)cc2)cc1 (centres unmarked) [Example 1-35] | 1 to 10 µM |
| COc1ccc(Oc2ccc(S(=O)(=O)C3(C(=O)NO)CCC4(CCN(Cc5ccccc5)CC4)C3)cc2)cc1 (centres unmarked) [Example 1-36] | 1 to 10 µM |
| COc1ccc(Oc2ccc(S(=O)(=O)C3(C(=O)NO)CCC4(CCN(Cc5ccncc5)CC4)C3)cc2)cc1 (centres unmarked) [Example 1-37] | > 25 µM |
| COc1ccc(Oc2ccc(S(=O)(=O)C3(C(=O)NO)CC34CCNCC4)cc2)cc1 (centres unmarked) [Example 1-43] | < 1 µM |
| COc1ccc(Oc2ccc(S(=O)(=O)C3(C(=O)NO)CCC4(CCNCC4)C3)cc2Cl)cc1 (centres unmarked) [Example 1-56, N-hydroxy-3-(3-chloro-4-(4-methoxyphenoxyl)Phenylsulfonyl)-8-azaspiro[4.5]decane-3-carboxamide] | < 1 µM |
| NC(=O)c1ccc(Oc2ccc(S(=O)(=O)C3(C(=O)NO)CCC4(CCNCC4)C3)cc2)cc1 (centres unmarked) [Example 1-64] | > 25 µM |
| CC(C)NC(=O)c1ccc(Oc2ccc(S(=O)(=O)C3(C(=O)NO)CCC4(CCNCC4)C3)cc2)cc1 (centres unmarked) [Example 1-65] | 1 to 10 µM |
| O=C(NO)C1(S(=O)(=O)c2ccc(Cc3ccccc3)cc2)CCC2(CCNCC2)C1 (centres unmarked) [Example 1-66] | > 25 µM |
| O=C(NO)C1(S(=O)(=O)c2ccc(NCc3ccccc3)cc2)CCC2(CCNCC2)C1 (centres unmarked) [Example 1-67] | < 1 µM |
| CC(C)Oc1ccc(Oc2ccc(S(=O)(=O)C3(C(=O)NO)CCC4(CCNCC4)C3)cc2)cc1 (centres unmarked) [Example 1-72] | 1 to 10 µM |
| COC(=O)c1cccc(Oc2ccc(S(=O)(=O)C3(C(=O)NO)CCC4(CCNCC4)C3)cc2)c1 (centres unmarked) [Example 1-74] | 1 to 10 µM |
| CNC(=O)C1CCC(Nc2ccc(S(=O)(=O)C3(C(=O)NO)CCC4(CCNCC4)C3)cc2)CC1 (centres unmarked) [Example 1-83] | > 25 µM |
| O=C(O)c1ccc(C(=O)Oc2ccc(S(=O)(=O)C3(C(=O)NO)CCC4(CCNCC4)C3)cc2)cc1 (centres unmarked) [Example 1-86] | < 1 µM |
| O=C(O)c1ccc(Oc2ccc(S(=O)(=O)C3(C(=O)NO)CCC4(CCNCC4)C3)cc2)cc1F (centres unmarked) [Example 1-88] | < 1 µM |
| CNC(=O)c1ccc(Oc2ccc(S(=O)(=O)C3(C(=O)NO)CCC4(CCNCC4)C3)cc2)cc1F (centres unmarked) [Example 1-89] | > 25 µM |
| CNC(=O)c1ccc(Oc2ccc(S(=O)(=O)C3(C(=O)NO)CCC4(CCNCC4)C3)cc2)c(F)c1 (centres unmarked) [Example 1-93] | > 25 µM |
| COC(=O)c1ccc(Oc2ccc(S(=O)(=O)C3(C(=O)NO)CCC4(CCNCC4)C3)cc2)c(F)c1 (centres unmarked) [Example 1-94] | > 25 µM |
| O=C(O)c1ccc(Oc2ccc(S(=O)(=O)C3(C(=O)NO)CCC4(CCNCC4)C3)cc2)c(F)c1 (centres unmarked) [Example 1-95] | > 25 µM |

Other lines, results leading:

| EC50 | Structure (SMILES) |
| --- | --- |
| 10 to 25 µM | CC(C)CCOc1ccc(S(=O)(=O)C2(C(=O)NO)CCC3(CCNCC3)C2)cc1 (centres unmarked) [Example 1-05] |
| < 1 µM | O=C(NO)C1(S(=O)(=O)c2ccc(OCCN3CCCCC3)cc2)CCC2(CCNCC2)C1 (centres unmarked) [Example 1-11, N-hydroxy-3-(4-[2-(piperidin-1-yl)ethoxy]phenylsulfonyl)-8-azaspiro[4.5]decane-3-carboxamide] |
| 1 to 10 µM | COC1CCN(c2ccc(S(=O)(=O)C3(C(=O)NO)CCC4(CCNCC4)C3)cc2)CC1 (centres unmarked) [Example 1-16, N-hydroxy-3-[4-(4-methoxypiperidin-1-yl)phenylsulfonyl]-8-azaspiro[4.5]decane-3-carboxamide] |
| 1 to 10 µM | COc1ccc(S(=O)(=O)c2ccc(S(=O)(=O)C3(C(=O)NO)CCC4(CCNCC4)C3)cc2)cc1 (centres unmarked) [Example 1-17] |
| 1 to 10 µM | O=C(NO)C1(S(=O)(=O)c2ccc(OC3CCCCC3)cc2)CCC2(CCNCC2)C1 (centres unmarked) [Example 1-18] |
| > 25 µM | COc1ccc(-c2ccc(S(=O)(=O)C3(C(=O)NO)CCC4(CCNCC4)C3)cc2)cc1 (centres unmarked) [Example 1-41, N-hydroxy-3-(4-(4-methoxyphenyl)Phenylsulfonyl)-8-azaspiro[4.5]decane-3-carboxamide] |
| > 25 µM | O=C(NO)C1(S(=O)(=O)c2ccc(O)cc2)CCC2(CCNCC2)C1 (centres unmarked) [Example 1-60, N-hydroxy-3-(4-hydroxyphenylsulfonyl)-8-azaspiro[4.5]decane-3-carboxamide] |
| > 25 µM | Nc1ccc(S(=O)(=O)C2(C(=O)NO)CCC3(CCNCC3)C2)cc1 (centres unmarked) [Example 1-61] |
| < 1 µM | COC1CCC(Oc2ccc(S(=O)(=O)C3(C(=O)NO)CCC4(CCNCC4)C3)cc2)CC1 (centres unmarked) [Example 1-70] |
| 1 to 10 µM | O=C(O)c1cccc(Oc2ccc(S(=O)(=O)C3(C(=O)NO)CCC4(CCNCC4)C3)cc2)c1 (centres unmarked) [Example 1-75] |
| > 25 µM | O=C(NO)C1(S(=O)(=O)c2ccc(Oc3ccc(Cl)cc3)cc2)CCC2(CCNCC2)C1 (centres unmarked) [Example 1-76] |
| 1 to 10 µM | COC1CCC(Nc2ccc(S(=O)(=O)C3(C(=O)NO)CCC4(CCNCC4)C3)cc2)CC1 (centres unmarked) [Example 1-77] |
| > 25 µM | O=C(NO)C1(S(=O)(=O)c2cccc(NC3CCCCC3)c2)CCC2(CCNCC2)C1 (centres unmarked) [Example 1-78] |
| < 1 µM | O=C(Nc1ccc(S(=O)(=O)C2(C(=O)NO)CCC3(CCNCC3)C2)cc1)C1CCCCC1 (centres unmarked) [Example 1-81, N-hydroxy-3-(4-(cyclohexanecarbonylamino)Phenylsulfonyl)-8-azaspiro[4.5]decane-3-carboxamide] |
| < 1 µM | O=C(O)C1CCC(Nc2ccc(S(=O)(=O)C3(C(=O)NO)CCC4(CCNCC4)C3)cc2)CC1 (centres unmarked) [Example 1-84] |
| > 25 µM | COc1cc(S(=O)(=O)C2(C(=O)NO)CCC3(CCNCC3)C2)ccc1NC1CCCCC1 (centres unmarked) [Example 1-90, N-hydroxy-3-(3-methoxy-4-(cyclohexylamino)Phenylsulfonyl)-8-azaspiro[4.5]decane-3-carboxamide] |
| 1 to 10 µM | O=C(NO)C1(S(=O)(=O)c2ccc(OCC3CCCCC3)cc2)CCC2(CCNCC2)C1 (centres unmarked) [Example 1-92] |

Same assay, conditions: read-out: EC50LT (effective concentration to delay lysis time by 50%); human blood, tPA, assayed concentrations 1000-0.2 μM

| EC50 | Structure (SMILES) |
| --- | --- |
| > 25 µM | COc1ccc(Oc2ccc(S(=O)(=O)C3(C(=O)NO)CCC4(CCN(Cc5cnc[nH]5)CC4)C3)cc2)cc1 (centres unmarked) [Example 1-39] |
| 1 to 10 µM | CN(C)C(=O)c1ccc(Oc2ccc(S(=O)(=O)C3(C(=O)NO)CCC4(CCNCC4)C3)cc2)cc1 (centres unmarked) [Example 1-63] |
